# Reference: PubChem BioAssay AID1918945 (Molecular Pharmacology Branch, DTP, NCI, 2023)
# Test system: 883617-216-R-J1-PDC complex spheroid viability
# Assay: Anticancer human tumor 883617-216-R-J1-PDC patient-derived bladder carcinoma cell line growth inhibition
# Conditions: for IC50: curve of first compound; for viability, T/C: stronger effect = lower value
# In short: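 Drug combinations with the LSD1 inhibitor iadademstat tested on tumor cells co-cultured as spheroids with endothelial cells and mesenchymal stem cells. Concentrations descended in half-log increments from clinical Cmax or 10 microM.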
# [1] = second compound 0.1 µM, first compound 0.00316 µM
# [2] = second compound 0.1 µM, first compound 0.01 µM
# [3] = second compound 0.1 µM, first compound 0.0316 µM
# [4] = second compound 0.1 µM, first compound 0.1 µM
# [5] = second compound 0.316 µM, first compound 0.00316 µM
# [6] = second compound 0.316 µM, first compound 0.01 µM
# [7] = second compound 0.316 µM, first compound 0.0316 µM
# [8] = second compound 0.316 µM, first compound 0.1 µM
# [9] = second compound 1 µM, first compound 0.00316 µM
# [10] = second compound 1 µM, first compound 0.01 µM
# [11] = second compound 1 µM, first compound 0.0316 µM
# [12] = second compound 1 µM, first compound 0.1 µM
# [13] = second compound 3.16 µM, first compound 0.00316 µM
# [14] = second compound 3.16 µM, first compound 0.01 µM
# [15] = second compound 3.16 µM, first compound 0.0316 µM
# [16] = second compound 3.16 µM, first compound 0.1 µM
# [17] = second compound 10 µM, first compound 0.00316 µM
# [18] = second compound 10 µM, first compound 0.01 µM
# [19] = second compound 10 µM, first compound 0.0316 µM
# [20] = second compound 10 µM, first compound 0.1 µM
# [21] = second compound 0.1 µM, first compound 0.000949 µM
# [22] = second compound 0.1 µM, first compound 0.003 µM
# [23] = second compound 0.1 µM, first compound 0.00949 µM
# [24] = second compound 0.1 µM, first compound 0.03 µM
# [25] = second compound 0.1 µM, first compound 0.0949 µM
# [26] = second compound 0.1 µM, first compound 0.3 µM
# [27] = second compound 0.316 µM, first compound 0.000949 µM
# [28] = second compound 0.316 µM, first compound 0.003 µM
# [29] = second compound 0.316 µM, first compound 0.00949 µM
# [30] = second compound 0.316 µM, first compound 0.03 µM
# [31] = second compound 0.316 µM, first compound 0.0949 µM
# [32] = second compound 0.316 µM, first compound 0.3 µM
# [33] = second compound 1 µM, first compound 0.000949 µM
# [34] = second compound 1 µM, first compound 0.003 µM
# [35] = second compound 1 µM, first compound 0.00949 µM
# [36] = second compound 1 µM, first compound 0.03 µM
# [37] = second compound 1 µM, first compound 0.0949 µM
# [38] = second compound 1 µM, first compound 0.3 µM
# [39] = second compound 3.16 µM, first compound 0.000949 µM
# [40] = second compound 3.16 µM, first compound 0.003 µM
# [41] = second compound 3.16 µM, first compound 0.00949 µM
# [42] = second compound 3.16 µM, first compound 0.03 µM
# [43] = second compound 3.16 µM, first compound 0.0949 µM
# [44] = second compound 3.16 µM, first compound 0.3 µM
# [45] = second compound 10 µM, first compound 0.000949 µM
# [46] = second compound 10 µM, first compound 0.003 µM
# [47] = second compound 10 µM, first compound 0.00949 µM
# [48] = second compound 10 µM, first compound 0.03 µM
# [49] = second compound 10 µM, first compound 0.0949 µM
# [50] = second compound 10 µM, first compound 0.3 µM
# 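Note: exposure lasted seven days after three days of spheroid growth.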
# 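Throughout, for viability, T/C: 100% = DMSO vehicle control luminescence.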
compound,measurement,setting,value
CC[C@@]1(O)C(=O)OCc2c1cc1n(c2=O)Cc2cc3c(CN(C)C)c(O)ccc3nc2-1 + NC1CCC(NC2CC2c2ccccc2)CC1,IC50,second compound 0.1 µM,4.71 nM
same,IC50,second compound 0.316 µM,5.7 nM
same,IC50,second compound 1 µM,6.31 nM
same,IC50,second compound 3.16 µM,6.47 nM
same,IC50,second compound 10 µM,7.25 nM
same,"viability, T/C","second compound 0.1 µM, first compound 0.000316 µM",94.9%
same,"viability, T/C","second compound 0.1 µM, first compound 0.001 µM",85.8%
same,"viability, T/C",[1],55.2%
same,"viability, T/C",[2],38.9%
same,"viability, T/C",[3],33.8%
same,"viability, T/C",[4],28.5%
same,"viability, T/C","second compound 0.316 µM, first compound 0.000316 µM",103%
same,"viability, T/C","second compound 0.316 µM, first compound 0.001 µM",104%
same,"viability, T/C",[5],62.5%
same,"viability, T/C",[6],42.6%
same,"viability, T/C",[7],30.9%
same,"viability, T/C",[8],32.4%
same,"viability, T/C","second compound 1 µM, first compound 0.000316 µM",93.7%
same,"viability, T/C","second compound 1 µM, first compound 0.001 µM",87.2%
same,"viability, T/C",[9],57.4%
same,"viability, T/C",[10],44.2%
same,"viability, T/C",[11],36.2%
same,"viability, T/C",[12],26.9%
same,"viability, T/C","second compound 3.16 µM, first compound 0.000316 µM",95.8%
same,"viability, T/C","second compound 3.16 µM, first compound 0.001 µM",86.1%
same,"viability, T/C",[13],61.3%
same,"viability, T/C",[14],42.5%
same,"viability, T/C",[15],35.4%
same,"viability, T/C",[16],28.8%
same,"viability, T/C","second compound 10 µM, first compound 0.000316 µM",99.3%
same,"viability, T/C","second compound 10 µM, first compound 0.001 µM",98.2%
same,"viability, T/C",[17],74.7%
same,"viability, T/C",[18],40%
same,"viability, T/C",[19],36.7%
same,"viability, T/C",[20],28.6%
CCc1c2c(nc3ccc(O)cc13)-c1cc3c(c(=O)n1C2)COC(=O)[C@]3(O)CC + NC1CCC(NC2CC2c2ccccc2)CC1,IC50,second compound 0.1 µM,< 0.949 nM
same,IC50,second compound 0.316 µM,< 0.949 nM
same,IC50,second compound 1 µM,< 0.949 nM
same,IC50,second compound 3.16 µM,< 0.949 nM
same,IC50,second compound 10 µM,< 0.949 nM
same,"viability, T/C",[21],34.6%
same,"viability, T/C",[22],27.8%
same,"viability, T/C",[23],24.9%
same,"viability, T/C",[24],24.2%
same,"viability, T/C",[25],5.01%
same,"viability, T/C",[26],2.12%
same,"viability, T/C",[27],35.5%
same,"viability, T/C",[28],28.4%
same,"viability, T/C",[29],25%
same,"viability, T/C",[30],22.8%
same,"viability, T/C",[31],3.48%
same,"viability, T/C",[32],0.41%
same,"viability, T/C",[33],36.2%
same,"viability, T/C",[34],24.4%
same,"viability, T/C",[35],26.4%
same,"viability, T/C",[36],23.7%
same,"viability, T/C",[37],4.59%
same,"viability, T/C",[38],0.62%
same,"viability, T/C",[39],31.6%
same,"viability, T/C",[40],25.7%
same,"viability, T/C",[41],26.7%
same,"viability, T/C",[42],23.6%
same,"viability, T/C",[43],5.29%
same,"viability, T/C",[44],1.43%
same,"viability, T/C",[45],30.6%
same,"viability, T/C",[46],25.7%
same,"viability, T/C",[47],25.2%
same,"viability, T/C",[48],25.6%
same,"viability, T/C",[49],3.82%
same,"viability, T/C",[50],0.29%
COc1cc(C2c3cc4c(cc3C(OC3OC5COC(C)OC5C(O)C3O)C3COC(=O)C23)OCO4)cc(OC)c1O (stereo not given) + NC1CCC(NC2CC2c2ccccc2)CC1,IC50,second compound 0.1 µM,377 nM
same,IC50,second compound 0.316 µM,645 nM
same,IC50,second compound 1 µM,830 nM
same,IC50,second compound 3.16 µM,587 nM
same,IC50,second compound 10 µM,1750 nM
same,"viability, T/C",[23],96.9%
same,"viability, T/C",[24],94.1%
same,"viability, T/C",[25],72.5%
same,"viability, T/C",[26],51.6%
same,"viability, T/C","second compound 0.1 µM, first compound 0.949 µM",45.8%
same,"viability, T/C","second compound 0.1 µM, first compound 3 µM",38.3%
same,"viability, T/C",[29],101%
same,"viability, T/C",[30],94%
same,"viability, T/C",[31],80.1%
same,"viability, T/C",[32],51.4%
same,"viability, T/C","second compound 0.316 µM, first compound 0.949 µM",54%
same,"viability, T/C","second compound 0.316 µM, first compound 3 µM",43.4%
same,"viability, T/C",[35],104%
same,"viability, T/C",[36],83%
same,"viability, T/C",[37],67.3%
same,"viability, T/C",[38],56.2%
same,"viability, T/C","second compound 1 µM, first compound 0.949 µM",49.2%
same,"viability, T/C","second compound 1 µM, first compound 3 µM",44.6%
same,"viability, T/C",[41],106%
same,"viability, T/C",[42],95.5%
same,"viability, T/C",[43],70.9%
same,"viability, T/C",[44],53.2%
same,"viability, T/C","second compound 3.16 µM, first compound 0.949 µM",51.8%
same,"viability, T/C","second compound 3.16 µM, first compound 3 µM",41.8%
same,"viability, T/C",[47],122%
same,"viability, T/C",[48],99.8%
same,"viability, T/C",[49],75.4%
same,"viability, T/C",[50],60.2%
same,"viability, T/C","second compound 10 µM, first compound 0.949 µM",56.4%
same,"viability, T/C","second compound 10 µM, first compound 3 µM",45.6%
Nc1ccn(C2OC(CO)C(O)C2(F)F)c(=O)n1 (stereo not given) + NC1CCC(NC2CC2c2ccccc2)CC1,IC50,second compound 0.1 µM,< 0.949 nM
same,IC50,second compound 0.316 µM,< 0.949 nM
same,IC50,second compound 1 µM,< 0.949 nM
same,IC50,second compound 3.16 µM,< 0.949 nM
same,IC50,second compound 10 µM,< 0.949 nM
same,"viability, T/C",[21],28.7%
same,"viability, T/C",[22],20.4%
same,"viability, T/C",[23],24.2%
same,"viability, T/C",[24],26.4%
same,"viability, T/C",[25],25.9%
same,"viability, T/C",[26],18.2%
same,"viability, T/C",[27],24.9%
same,"viability, T/C",[28],17.3%
same,"viability, T/C",[29],23.6%
same,"viability, T/C",[30],22.4%
same,"viability, T/C",[31],23.4%
same,"viability, T/C",[32],23.6%
same,"viability, T/C",[33],28.2%
same,"viability, T/C",[34],19.7%
same,"viability, T/C",[35],24.1%
same,"viability, T/C",[36],22.6%
same,"viability, T/C",[37],22%
same,"viability, T/C",[38],21.7%
same,"viability, T/C",[39],24.7%
same,"viability, T/C",[40],21.7%
same,"viability, T/C",[41],22.3%
same,"viability, T/C",[42],21.6%
same,"viability, T/C",[43],22.7%
same,"viability, T/C",[44],19.2%
same,"viability, T/C",[45],30.5%
same,"viability, T/C",[46],20.6%
same,"viability, T/C",[47],26.9%
same,"viability, T/C",[48],23.6%
same,"viability, T/C",[49],23%
same,"viability, T/C",[50],19.2%
Nc1ncn(C2CC(O)C(CO)O2)c(=O)n1 (stereo not given) + NC1CCC(NC2CC2c2ccccc2)CC1,IC50,second compound 0.1 µM,> 1000 nM
same,IC50,second compound 0.316 µM,> 1000 nM
same,IC50,second compound 1 µM,> 1000 nM
same,IC50,second compound 3.16 µM,> 1000 nM
same,IC50,second compound 10 µM,> 1000 nM
same,"viability, T/C",[1],109%
same,"viability, T/C",[2],99.4%
same,"viability, T/C",[3],94.7%
same,"viability, T/C",[4],78.1%
same,"viability, T/C","second compound 0.1 µM, first compound 0.316 µM",72.6%
same,"viability, T/C","second compound 0.1 µM, first compound 1 µM",62.4%
same,"viability, T/C",[5],103%
same,"viability, T/C",[6],115%
same,"viability, T/C",[7],102%
same,"viability, T/C",[8],89.8%
same,"viability, T/C","second compound 0.316 µM, first compound 0.316 µM",79.4%
same,"viability, T/C","second compound 0.316 µM, first compound 1 µM",67.1%
same,"viability, T/C",[9],103%
same,"viability, T/C",[10],98.8%
same,"viability, T/C",[11],96.7%
same,"viability, T/C",[12],89.6%
same,"viability, T/C","second compound 1 µM, first compound 0.316 µM",77.7%
same,"viability, T/C","second compound 1 µM, first compound 1 µM",69.6%
same,"viability, T/C",[13],108%
same,"viability, T/C",[14],100%
same,"viability, T/C",[15],92.4%
same,"viability, T/C",[16],84.8%
same,"viability, T/C","second compound 3.16 µM, first compound 0.316 µM",78.6%
same,"viability, T/C","second compound 3.16 µM, first compound 1 µM",66.9%
same,"viability, T/C",[17],101%
same,"viability, T/C",[18],106%
same,"viability, T/C",[19],108%
same,"viability, T/C",[20],92.3%
same,"viability, T/C","second compound 10 µM, first compound 0.316 µM",93.8%
same,"viability, T/C","second compound 10 µM, first compound 1 µM",77.6%
